# Laboratory results taken from publication PMC7048748, “Anxiolytic Drug FGIN-1-27 Ameliorates Autoimmunity by Metabolic Reprogramming of Pathogenic Th17 Cells” (Scientific Reports, 2020).
# Assays:
# [1] = system: ZAP70; assay: Phospho ZAP70 staining after anti-CD3/CD28 stimulation; assay type: cell-based, mouse; settings: 10 μM, 24 hours
# Protocol: The following day, cells were treated with either DMSO or of FGIN-1-27 (10 μM). For phospho-ZAP70 analyses, cells were stained after 24 hours of treatment using 10 μg/ml of biotinylated anti-CD3 (145-2C11, BD Biosciences) and anti-CD28 (37.51, BD Biosciences) antibodies on ice for 15 minutes, washed, and stimulated in presence of 20 μg/ml of Streptavidin for 10 minutes at 37 degrees. Cells were then fixed in 2% PFA, permeabilized in Methanol/Acetone and stained with anti-phospho ZAP70 antibody (n3kobu5, eBioscience) and anti-CD4 (RM4-5, eBioscience). For phospho-STAT3 analyses, cells were cultured for additional 24 hours in IL-6 free media, before stimulation with 100 ng/ml of mIL-6 for 30 minutes. Cells were then fixed in 2% PFA, permeabilized in Methanol/Acetone and stained with anti-phospho-STAT3 antibody (4/P-STAT3, BD Biosciences) and anti-CD4. Dead cells were excluded using Live/Dead […] (Thermo Fisher) staining prior to stimulation. page 3: Supplementary Figur es Fig S1 (a) Genomic browser screenshot of Tspo depicting normalized RNA-seq read coverage (RPM) in different T cell subsets. Data were downloaded from NCBI GEO (accession number GSE40918) and processed as in Figure 4A. […] (g) Transcript levels for S ta t3 after 24 hours of treatment with DMSO or FGIN-1-27 quantified by qPCR. […]
# [2] = system: Th17 cells from TSPO KO mice; assay: Th17 differentiation with CD4 T cells from TSPO knockout mice; assay type: cell-based, mouse; settings: compared with T cells expressing TSPO
# From the text: We explored the mechanism of action for FGIN-1-27 and whether the effect of FGIN-1-27 on Th17 differentiation was driven by TSPO, the reported target of this compound. We used two approaches: first, we investigated the correlation between FGIN-1-27 induced IL-17 down-regulation and binding to TSPO. For the binding studies, we used a biochemical radio ligand displacement assay with the well-characterized TSPO ligand PK-11195 as a tracer. […] Secondly, we purified CD4^+ T cells from spleen and lymph nodes of mice that lacked global expression of TSPO (TSPO KO mice)[19]. We added FGIN-1-27 to the cultures of CD4^+ T cells from controls or TSPO KO mice that were induced towards the Th17 differentiation program.
# Figure 3 Effect of FGIN-1-27 on Th17 Differentiation is Independent of TSPO. (a) Plot showing correlation between binding of FGIN-1-27 to TSPO and effect on IL-17 production. Binding of FGIN-1-27 to TSPO was measured using a biochemical radiolabeled displacement assay and radiolabeled PK-11195 was used as a control ligand. (b) Immunoblot to detect TSPO from spleens of either control or TSPO knockout mice (upper panel) and dose response plot for FGIN-1-27 showing effect on Th17 differentiation using purified CD4 T cells from spleens of either control or TSPO knockout mice. IL-17 production was normalized using DMSO treatment from control cells as 100%. […]
compound,measurement,setting,value
"CCCCCCN(CCCCCC)C(=O)Cc1c(-c2ccc(F)cc2)[nH]c2ccccc12 [FGIN-1-27, N, N-di-n-hexyl 2-(4-fluorophenyl) indole-3-acetamide]",phosphorylation of ZAP70,[1],did not phosphorylate ZAP70
same,Th17 differentiation in T cells from TSPO KO mice,[2],similarly to T cells expressing TSPO
